Data set [1] has as its system DU145 (human prostate cancer cells). Particulars: for effect of mutation of R9-MPF13 on the anti-proliferative effect: relative to R9-MPF13; for inhibitory effect on the proliferation of prostate cancer cells DU145: DU145, 48 hours, MTT.
Experimental: 5.2 Some of the polypeptides in Table 1 were prepared into a 10 mM mother solution with sterile pure water, and the mother solution is gradiently diluted with a basal culture medium, the diluted polypeptide solution was added to 96-well plates with DU145 cells pre-laid, 100 μL per well, and four replicates for each concentration. After 48 hours of treatment, the modified MTT kit was used to treat and measure the OD value at 580 nm, and the results were calculated and analyzed.
(§4) The experiment method includes: the polypeptide was prepared into a 10 mM mother solution with sterile pure water, and after gradient dilution with a basal culture medium, the diluted polypeptide solution was added to a 96-well plate with various cells pre-laid, 100 μL per well, and four replicates for each concentration. After 48 hours of treatment, the modified MTT kit was used to treat and measure the OD value at 580 nm, and the results are calculated and analyzed.
A further data set deals with PC3 cells. The experiment in a line: Growth/proliferation inhibition, CCK-8 and clone formation, PC3. Format: cell-based, human. Conditions: for effect of inhibiting cell growth after combining with the cell-penetrating peptide R9: CCK-8, 24 hours, peptide connected with R9. The method, then: (§1) 5.1 Referring to FIG. 5A, the polypeptides R9, RM3, and RSM3 were prepared into a 50 mM mother solution with sterile pure water, and the mother solution was gradiently diluted with a basal culture medium, the diluted peptide solution was added to 96-well plates pre-laid with PC3 and DU145 cells, 100 μL per well, and three replicates for each concentration. After 24 h of treatment, the OD value at 450 nm was measured with a CCK-8 kit, and the results were calculated and analyzed.
(§2) FIG. 5B illustrates a clone formation experiment, the grown PC3 and DU145 cells were digested with 0.25% trypsin and the number of cells were counted, 300 cells were added to each well of the six-well plate, and 2 ml of complete culture medium was added to continue culturing for 24 hours. M3, R9, RM3, and RSM3 were added to each well and cultured for 7 days, the medium was discarded, the cells were washed, stained with crystal violet, and then microscopically photographed, and the number of the cells were counted.
(§3) Referring to FIG. 6, the above two polypeptides were prepared into a 50 mM mother solution with sterile pure water, and then gradiently diluted with a basal culture medium, the diluted peptide solution was added to a 96-well plate pre-laid with PC3 and DU145 cells, 100 μL per well, and three replicates for each concentration. After 24 hours of treatment, the OD value was measured at 450 nm using CCK-8, and the obtained values were calculated.

For the next data set, the system named is DU145 cells. The experiment in a line: Growth/proliferation inhibition, CCK-8 and clone formation, DU145. Conditions: for effect of inhibiting cell growth after combining with the cell-penetrating peptide R9: CCK-8, 24 hours, peptide connected with R9. It is filed as cell-based, human. The method, then:
as §1, §2, §3

Data set [2] relates to A375 (human malignant melanoma). Particulars: 48 h.
Experimental: as §4
Data set [3] deals with Hela (human anterior cervical cancer cells). Particulars: 48 h.
Experimental: as §4
The subject of data set [4] is SaoS2 (human osteosarcoma cells). Particulars: 48 h.
Experimental: as §4
For data set [5], the system named is OVCAR-3 (ovarian adenocarcinoma cells). Particulars: 48 h.
Experimental: as §4
Data set [6] concerns A549 (lung cancer human alveolar basal epithelial cells). Conditions: 48 h.
Experimental: as §4
Data set [7] relates to HCT116 (colorectal cancer cell line). Conditions: 48 h.
Experimental: as §4
Data set [8] deals with HepG2 (human hepatoblastoma cells). Particulars: 48 h.
Experimental: as §4
Data set [9] concerns K562 (human chronic myeloid leukemia cells). Conditions: 48 h.
Experimental: as §4
A further data set concerns the target METTL3 and METTL14 (Homo sapiens, UniProt Q86U44). The experiment in a line: Binding to METTL3 and METTL14 proteins in vitro.
Data set [10] is described as follows: Drug safety assessment in vivo, blood indexes. Also on record: species or system C57BL/C mice. Conditions: 50 mg/kg intraperitoneal once, 24 hours; for platelets (PLT) / red blood cells (RBC) / white blood cells (WBC) in the blood: compared with R9 and PBS; for white blood cells (WBC) in the blood / hemoglobin (HMGB): within the normal range. The method, then:
Referring to FIGS. 7A to 7H, (A) drug safety assessment in vivo: C57BL/C mice raised for 7 weeks were intraperitoneally injected with a dose of 50 mg/kg (R9, RM3, RSM3) once, after 24 hours, the mice were sacrificed and the blood of the mice was taken to measure indexes such as white blood cells, platelets, red blood cells, and hemoglobin, to analyze toxicity of the drug to normal animals.

The subject of data set [11] is PC3 prostate cancer cells with high expression of METTL3. The experiment in a line: Anti-tumor experiment in vivo, PC3 prostate tumor-bearing mouse model. Conditions: for body weight changes: tumor model mice. Also on record: species or system BALB/c nude mice. The protocol:
(B) Anti-tumor experiment in vivo: a prostate tumor-bearing mouse model is selected, the specific steps to construct the animal model are as follows: PC3 prostate cancer cells with high expression of METTL3 were cultured to a logarithmic growth phase, the PC3 prostate cancer cells were digested, collected, and prepared into a cell suspension with a concentration of 1×10^7 cells/mL. 4 to 6 week-old male and female BALB/c nude mice were taken, and were injected with 100 μL of cell suspension into the back of the hind limbs, to establish a tumor model. After a diameter of the mouse tumor grows to about 0.5 cm, the mice were randomly divided into groups according to the experimental requirements: PBS, R9, RM3, RSM3, etc. Peritumoral administration is performed on the mice, once every two days, for two consecutive weeks.

The target of a further data set is T1, METTL3 (Homo sapiens, UniProt Q86U44).
T1 construct: endogenous in cells; host or cells: PC3 and DU145 cells
T1 sequence (Q86U44 2-580 limits assumed): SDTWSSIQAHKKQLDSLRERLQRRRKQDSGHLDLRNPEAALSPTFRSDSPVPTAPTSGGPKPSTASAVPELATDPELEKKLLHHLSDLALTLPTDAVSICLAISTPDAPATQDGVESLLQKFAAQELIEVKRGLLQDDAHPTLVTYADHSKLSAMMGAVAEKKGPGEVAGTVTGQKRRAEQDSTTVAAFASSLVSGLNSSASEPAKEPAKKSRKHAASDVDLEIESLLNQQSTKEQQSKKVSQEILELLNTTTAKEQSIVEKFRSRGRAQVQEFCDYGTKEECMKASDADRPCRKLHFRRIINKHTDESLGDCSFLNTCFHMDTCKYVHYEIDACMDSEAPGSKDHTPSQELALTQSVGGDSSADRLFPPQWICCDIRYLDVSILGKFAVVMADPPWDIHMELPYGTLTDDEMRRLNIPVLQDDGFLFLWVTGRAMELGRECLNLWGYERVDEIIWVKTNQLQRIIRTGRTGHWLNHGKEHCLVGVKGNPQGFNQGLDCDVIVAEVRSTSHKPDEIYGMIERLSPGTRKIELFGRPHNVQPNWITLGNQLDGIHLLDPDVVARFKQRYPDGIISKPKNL
As to the kind of experiment: Inhibition of METTL3 expression in prostate cancer cells, immunoblot. It is filed as cell-based. Particulars: PC3 and DU145 cells, 20 μM, 24 hours. The method, then: Referring to FIG. 4, a certain amount of polypeptide was weighed and dissolved into a 50 mM mother solution, the polypeptides R9, RM3, and RSM3 were prepared into a 50 mM mother solution with sterile pure water, after gradient dilution, the mother solution were added to a 6-well plate with PC3 and DU145 cells pre-laid, the final concentration of the polypeptide was 20 μM, 2 mL per well, and three replicates were used for each concentration. After 24 hours of treatment, the cells were lysed to extract cell proteins, and the proteins were separated by electrophoresis and transferred to a PVDF membrane, to incubate the primary antibody and secondary antibody of METTL3, and finally exposed for imaging.
In FIG. 4, GAPDH is an internal reference in the immunoblotting experiment (WB experiment).
For orientation: A western blot detects proteins with antibodies after separation by electrophoresis.

Another data set concerns RNA methylation. As to the kind of experiment: Determination of RNA methylation (m6A) in prostate cancer cells, dot blot. Format: cell-based, human. Particulars: PC3 and DU145 cells, 12 hours. The method, then: In FIG. 3, MB is methylene blue staining, and m^6A is methylation content. 500 ng and 3000 ng are the loaded sample amounts of RNA in the experiment.
Where [12] appears, read: peritumoral administration once every two days for two weeks.
[13] abbreviates: CCK-8 24 h, clone formation 7 days.

pIC50: −log10 of the molar value. Bridge positions count the residues as written; N and C are the ends. Ends that are not written are not given here. Peptide text beside a SMILES is read from it.

Chain of METTL3 and METTL14 (Q86U44 whole entry, species assumed): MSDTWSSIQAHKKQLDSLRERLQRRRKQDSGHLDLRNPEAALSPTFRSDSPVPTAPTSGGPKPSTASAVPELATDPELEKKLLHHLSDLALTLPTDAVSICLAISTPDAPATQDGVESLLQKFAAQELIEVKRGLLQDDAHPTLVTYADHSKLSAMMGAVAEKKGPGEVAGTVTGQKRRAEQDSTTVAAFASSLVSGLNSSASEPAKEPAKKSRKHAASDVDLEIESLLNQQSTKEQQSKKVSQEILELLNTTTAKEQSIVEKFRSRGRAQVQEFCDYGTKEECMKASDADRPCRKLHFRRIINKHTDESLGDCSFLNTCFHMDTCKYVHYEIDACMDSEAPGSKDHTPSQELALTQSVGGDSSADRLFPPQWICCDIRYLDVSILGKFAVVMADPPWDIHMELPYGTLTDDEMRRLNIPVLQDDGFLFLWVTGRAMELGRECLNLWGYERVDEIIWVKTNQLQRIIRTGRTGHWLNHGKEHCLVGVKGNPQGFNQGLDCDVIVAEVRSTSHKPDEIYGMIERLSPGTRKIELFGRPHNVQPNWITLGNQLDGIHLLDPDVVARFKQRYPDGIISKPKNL

For the compound “RRRRRRRRRRKMELGREFLNLW [Polypeptide R9-RKF]”, the “effect of mutation of R9-MPF13 on the anti-proliferative effect” value (from here on “effect of mutation of R9-MPF13”) in [1] is recorded as “enhance the anti-proliferative effect”.
For the compound “RRRRRRRRRRKMELGREMLNLW [Polypeptide R9-RKM]”, the “effect of mutation of R9-MPF13” value in data set [1] is “enhance the anti-proliferative effect”.
Same read-out and setting: next, “RRRRRRRRRRRMELGRELLNLW [Polypeptide R9-RRL]”: “enhance the anti-proliferative effect”.
Consider “FGRPHNVQ [Polypeptide M2, tested after being connected with the cell-penetrating peptide R9]”, for which the “effect of inhibiting cell growth after combining with the cell-penetrating peptide R9” value in the data set on PC3 cells and with DU145 cells was “certain effect of inhibiting cell growth” each time.
For “RRRRRRRRRRAMELGRECLNLA [Polypeptide R9-RA]”, the “effect of mutation of R9-MPF13” value in data set [1] is given as “weaken the anti-proliferative effect”.
As usually defined, the pIC50 is the negative decadic logarithm of the IC50, by convention in mol/L. A higher pIC50 goes with a low IC50. With “RRRRRRRRRRKMELGRELLNLW-NH2 (C-terminus assumed) [Polypeptide R9-RKL]”, the pIC50 in data set [2], in data set [3], in data set [1] (48 h), in data set [4], in data set [5] and in data set [6] was more than 4.96 in each case. For the same compound, the negative logarithm of the IC50 (pIC50) in data set [7], in [8] and in [9] was more than 4.96 throughout. The “inhibitory effect on the proliferation of prostate cancer cells DU145” value (“inhibitory effect on the proliferation” for short) in data set [1] was “better inhibitory effect”. Moreover, the “effect of mutation of R9-MPF13” value in [1] is “enhance the anti-proliferative effect”.
With “RRRRRRRRRRKMELGREYLNLW [Polypeptide R9-RKY]”, the “effect of mutation of R9-MPF13” value in data set [1] was “enhance the anti-proliferative effect”.
With “RRRRRRRRRRKWCLGRELLCLW (stapled peptide precursor) [Polypeptide R9-PSRKWL]”, the “inhibitory effect on the proliferation” value in [1] is listed as “better inhibitory effect”.
As for ELGRECLNLW [Polypeptide M3], the “binding to the proteins of METTL3 and METTL14” value in the data set with METTL3 and METTL14 was “can bind”.
As for “RRRRRRRRRRAMEEGRECLNLW [Polypeptide R9-RE]”, the “effect of mutation of R9-MPF13” value in data set [1] is “weaken the anti-proliferative effect”.
Regarding `CSCC[C@H](NC(=O)[C@H](CS)NC(=O)[C@H](CCCNC(=N)N)NC(=O)[C@H](CCCNC(=N)N)NC(=O)[C@H](CCCNC(=N)N)NC(=O)[C@H](CCCNC(=N)N)NC(=O)[C@H](CCCNC(=N)N)NC(=O)[C@H](CCCNC(=N)N)NC(=O)[C@H](CCCNC(=N)N)NC(=O)[C@H](CCCNC(=N)N)NC(=O)[C@@H](N)CCCNC(=N)N)C(=O)N[C@@H](CCC(=O)O)C(=O)N[C@@H](CC(C)C)C(=O)NCC(=O)N[C@@H](CCCNC(=N)N)C(=O)N[C@@H](CCC(=O)O)C(=O)N[C@@H](CS)C(=O)N[C@@H](CC(C)C)C(=O)N[C@@H](CC(N)=O)C(=O)N[C@@H](CC(C)C)C(=O)N[C@@H](Cc1c[nH]c2ccccc12)C(N)=O` [RM3] (H-RRRRRRRRRCMELGRECLNLW-NH2), in data set [10], the “platelets (PLT)” value was “no significant effect”, the “red blood cells (RBC)” value was “no significant effect”, the “white blood cells (WBC) in the blood” value was “slightly increased this index” and the “hemoglobin (HMGB)” value is recorded as “a certain reducing effect”. Besides, in data set [11] (setting [12]), the body weight changes entry was “no significant effect on the body weight”.
In the case of “RSM3: stapled peptide from RM3, 10th and 17th cysteines connected through 4,4-bis(bromomethyl)biphenyl (RRRRRRRRRCMELGRECLNLW; linker 10-17 via 4,4‑bis(bromomethyl)biphenyl)”, the “inhibition of the expression of METTL3” value with METTL3 is given as “inhibit the expression of METTL3”. For the same compound, in data set [10], the “platelets (PLT)” value was “no significant effect”, the “red blood cells (RBC)” value is “no significant effect”, the “white blood cells (WBC) in the blood” value is listed as “slightly increased this index” and the “hemoglobin (HMGB)” value was “a certain reducing effect”. The tumor mass entry in data set [11] (compared with R9 group and PBS, peritumoral administration once every two days for two weeks) is recorded as “significantly less”. Moreover, in data set [11] (overall comparison of the METTL3 polypeptide inhibitors), the “effect of inhibiting the growth of prostate tumors” value is “more effective”. Further, in [11] (setting [12]), the tumor volume changes entry was “significantly inhibit the increase in tumor volume” and the body weight changes result is recorded as “no significant effect on the body weight”. The “inhibitory effect on the growth of prostate cancer cells” value in the data set with PC3 cells (setting [13]) is listed as “good inhibitory effect”. For the same compound, the “inhibitory effect on the growth of prostate cancer cells” value with DU145 cells (setting [13]) is reported as “good inhibitory effect”. The “inhibition of RNA methylation (m6A)” value with RNA methylation is “better in terms of stability and methylation inhibition effect”. In addition, in the data set with RNA methylation (listed as R SM3), the “inhibition of RNA methylation (m6A)” value is on record as “significantly inhibit the RNA methylation”.
In the case of “QLQRIIRTGRTGHWLNHG [Polypeptide M1, tested after being connected with the cell-penetrating peptide R9]”, the “effect of inhibiting cell growth after combining with the cell-penetrating peptide R9” value in the data set with PC3 cells and in the data set with DU145 cells was “certain effect of inhibiting cell growth” throughout.
As to “RRRRRRRRRRKWELGRELLNLW [Polypeptide R9-RKWL]”, in [1], the “inhibitory effect on the proliferation” value was “better inhibitory effect” and the “effect of mutation of R9-MPF13” value was “enhance the anti-proliferative effect”.

For the origin of these results see patent US20250296956A1, “POLYPEPTIDE, PREPARATION METHOD, AND USE THEREOF” (Hunan University, priority 2022, published 2025).
